# Legend:
# [1] = tested on: genotype A, "Long" strain RSV; assay: RSV-A assay (CPE protection in Hep-2 cells, ATPlite readout); format: cell-based, Human respiratory syncytial virus (HRSV); conditions: human respiratory syncytial virus, genotype A “Long” strain RSV, MOI 0.1, CPE protection, read-out: Human RSV-A (“Long”)
# Method in brief: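 ATPlite luminescence (cellular ATP) served as the measure of cell health after 5 days of infection. Hep-2 cells at 8,000 per well received duplicate 2-fold compound dilutions plus virus at MOI 0.1, and EC50 was calculated from CPE protection.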
# [2] = tested on: HMPV clinical isolate TN/1501/A1; assay: HMPV antiviral assay Method-B (clinical isolate TN/1501/A1 in LLC-MK2 cells, ATP-Lite readout); format: cell-based, Human metapneumovirus (HMPV); conditions: human metapneumovirus, LLC-MK2, 144 h, hMPV WT1501 (clinical isolate TN/1501/A1), 6 days
# Method in brief: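 EC50 derived by four-parameter logistic fit of percent cell health, measured by ATP-Lite luminescence and normalised to virus-only and uninfected-cell controls. Compounds run in duplicate from 10 μM top, 3-fold, 10 points. Infection: LLC-MK2 cells, MOI 0.014, 2 μg/mL final TPCK-trypsin, serum-free, 6 days at 37° C.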
Structure (SMILES),EC50 [1] [nM],EC50 [2] [nM]
COc1cc(C(=O)NC[C@](O)(c2cc3c(c(-c4cc(Cl)ccc4F)n2)OC[C@]3(C)C(N)=O)C2(F)CC2)cc2cn(C3CC3)nc12 [Example 735],< 200,< 500
Cc1cnc2c(OC(F)F)cc(C(=O)NC[C@](O)(c3cc4c(c(-c5cc(Cl)ccc5F)n3)OC[C@]4(C)C(N)=O)C3(F)CC3)cc2c1 [Example 736],< 200,< 500
COc1cc(C(=O)NC[C@](O)(c2cc3c(c(-c4cc(Cl)ccc4F)n2)OC[C@]3(C)C(N)=O)C2(F)CC2)cc2cc(Cl)c(C)nc12 [Example 737],< 200,< 500
Cc1cnc2c(Cl)cc(C(=O)NC[C@](O)(c3cc4c(c(-c5ccc(F)cc5)n3)OC[C@]4(C)C(N)=O)C3(F)CC3)cc2c1 [Example 738],< 200,< 500
Cc1nc2c(OC3CC3)cc(C(=O)NC[C@](O)(c3cc4c(c(-c5ccc(F)cc5)n3)OC[C@]4(C)C(N)=O)C3(F)CC3)cc2cc1Cl [Example 739],< 200,< 500
Cc1cnc2c(Cl)cc(C(=O)NC[C@](O)(c3cc4c(c(-c5ccc(F)cc5)n3)OC[C@]4(C)C(N)=O)C3CC3)cc2c1 [Example 740],< 200,< 500
COc1cc(C(=O)NC[C@](O)(c2cc3c(c(-c4ccc(F)cc4)n2)OC[C@]3(C)C(N)=O)C2CC2)cc2sc(C3CC3)nc12 [Example 741],< 200,< 500
COc1cc(C(=O)NC[C@](O)(c2cc3c(c(-c4ccc(F)cc4)n2)OC[C@]3(C)C(N)=O)C2(F)CC2)cc2sc(C3CC3)nc12 [Example 742],< 200,< 500
COc1cc(C(=O)NC[C@](O)(c2cc3c(c(-c4ccc(F)c(F)c4F)n2)OC[C@]3(C)C(N)=O)C2(F)CC2)cc2cn(C3(F)CC3)nc12 [Example 743],< 200,< 500
COc1cc(C(=O)NC[C@](O)(c2cc3c(c(-c4ccc(F)c(F)c4F)n2)OC[C@]3(C)C(N)=O)C2(F)CC2)cc2cn(C(F)F)nc12 [Example 744],< 200,< 500
COc1cc(C(=O)NC[C@](O)(c2cc3c(c(-c4ccc(F)c(F)c4Cl)n2)OC[C@]3(C)C(N)=O)C2(F)CC2)cc2cn(C3CC3)nc12 [Example 745],< 200,< 500
Cc1cnc2c(OC(F)F)cc(C(=O)NC[C@](O)(c3cc4c(c(-c5ccc(F)c(F)c5Cl)n3)OC[C@]4(C)C(N)=O)C3(F)CC3)cc2c1 [Example 746],< 200,< 500
COc1cc(C(=O)NC[C@](O)(c2cc3c(c(-c4ccc(F)c(F)c4Cl)n2)OC[C@]3(C)C(N)=O)C2(F)CC2)cc2cc(Cl)c(C)nc12 [Example 747],< 200,< 500
COc1cc(C(=O)NC[C@](O)(c2cc3c(c(-c4ccc(F)c(F)c4Cl)n2)OC[C@]3(C)C(N)=O)C2(F)CC2)cc2cn(C(F)F)nc12 [Example 748],< 200,< 500
COc1cc(C(=O)NC[C@](O)(c2cc3c(c(-c4ccc(F)c(C(F)(F)F)c4)n2)OC[C@]3(C)C(N)=O)C2(F)CC2)cc2cn(C3CC3)nc12 [Example 749],< 200,< 500
Cc1cnc2c(OC(F)F)cc(C(=O)NC[C@](O)(c3cc4c(c(-c5ccc(F)c(C(F)(F)F)c5)n3)OC[C@]4(C)C(N)=O)C3(F)CC3)cc2c1 [Example 750],< 200,< 500
COc1cc(C(=O)NC[C@](O)(c2cc3c(c(-c4ccc(F)c(C(F)(F)F)c4)n2)OC[C@]3(C)C(N)=O)C2(F)CC2)cc2cn(C(F)F)nc12 [Example 751],< 200,< 500
COc1cc(C(=O)NC[C@](O)(c2cc3c(c(-c4ccc(F)c(Cl)c4F)n2)OC[C@]3(C)C(N)=O)C2(F)CC2)cc2cn(C3CC3)nc12 [Example 752],< 200,< 500
Cc1cnc2c(OC(F)F)cc(C(=O)NC[C@](O)(c3cc4c(c(-c5ccc(F)c(Cl)c5F)n3)OC[C@]4(C)C(N)=O)C3(F)CC3)cc2c1 [Example 753],< 200,< 500
COc1cc(C(=O)NC[C@](O)(c2cc3c(c(-c4ccc(F)c(Cl)c4F)n2)OC[C@]3(C)C(N)=O)C2(F)CC2)cc2cn(C(F)F)nc12 [Example 754],< 200,< 500
C[C@]1(C(N)=O)COc2c1cc([C@@](O)(CNC(=O)c1cc(Cl)c3nn(C4CC4)cc3c1)C1(F)CC1)nc2-c1ccc(F)cc1 [Example 755],< 200,< 500
COc1cc(C(=O)NC[C@](O)(c2cc3c(c(-c4ccc(F)cc4)n2)OC[C@]3(C)C(N)=O)C2(F)CC2)cc2cn(C3(F)CC3)nc12 [Example 756],< 200,< 500
C[C@]1(C(N)=O)COc2c1cc([C@@](O)(CNC(=O)c1cc(Cl)c3nn(C4CC4)cc3c1)C1(F)CC1)nc2-c1ccc(F)c(F)c1F [Example 757],< 200,< 500

Structure (SMILES),EC50 [1] [nM],EC50 [2] [nM]
COc1cc(C(=O)NC[C@](O)(c2cc3c(c(-c4cc(Cl)c(F)cc4F)n2)OC[C@]3(C)C(N)=O)C2(F)CC2)cc2cn(C3CC3)nc12 [Example 758],< 200,< 500
C[C@]1(C(N)=O)COc2c1cc([C@@](O)(CNC(=O)c1cc(Cl)c3nn(C4CC4)cc3c1)C1(F)CC1)nc2-c1cc(Cl)c(F)cc1F [Example 759],< 200,< 500
COc1cc(C(=O)NC[C@](O)(c2cc3c(c(-c4cc(Cl)c(F)cc4F)n2)OC[C@]3(C)C(N)=O)C2(F)CC2)cc2cc(Cl)c(C)nc12 [Example 760],< 200,< 500
COc1cc(C(=O)NC[C@](O)(c2cc3c(c(-c4cccc(F)c4Cl)n2)OC[C@]3(C)C(N)=O)C(F)(F)F)cc2cn(C3CC3)nc12 [Example 761],< 200,< 500
COc1cc(C(=O)NC[C@](O)(c2cc3c(c(-c4ccc(F)cc4)n2)OC[C@]3(C)C(N)=O)C2CC2)cc2cc(C)nnc12 [Example 762],< 200,< 500
COc1cc(C(=O)NC[C@](O)(c2cc3c(c(-c4ccc(F)cc4)n2)OC[C@]3(C)C(N)=O)C2CC2)cc2cc(C3CC3)nnc12 [Example 763],< 200,< 500
COc1cc(C(=O)NC[C@](O)(c2cc3c(c(-c4ccc5c(c4)OC(F)(F)O5)n2)OC[C@]3(C)C(N)=O)C(F)(F)F)cc2cc(C)nnc12 [Example 764],< 200,< 500
COc1cc(C(=O)NC[C@](O)(c2cc3c(c(-c4ccc5c(c4)OC(F)(F)O5)n2)OC[C@]3(C)C(N)=O)C(F)(F)F)cc2cc(C3CC3)nnc12 [Example 765],< 200,< 500
COc1cc(C(=O)NC[C@](O)(c2cc3c(c(-c4cc(Cl)c(F)cc4F)n2)OC[C@]3(C)C(N)=O)C2(F)CC2)cc2cn(C(F)F)nc12 [Example 766],< 200,< 500
COc1cc(C(=O)NC[C@](O)(c2cc3c(c(-c4cc(Cl)c(F)cc4F)n2)OC[C@]3(C)C(N)=O)C2(F)CC2)cc2cc(Br)cnc12 [Example 767],< 200,< 500
COc1cc(C(=O)NC[C@](O)(c2cc3c(c(-c4ccc(F)c(Cl)c4F)n2)OC[C@]3(C)C(N)=O)C2(F)CC2)cc2cc(Br)cnc12 [Example 768],< 200,< 500
Cc1cnc2c(Nc3cnccn3)cc(C(=O)NC[C@](O)(c3cc4c(c(-c5ccc6c(c5)OC(F)(F)O6)n3)OC[C@]4(C)C(N)=O)C3CC3)cc2c1 [Example 773],< 200,< 500
COc1cc(C(=O)NC[C@](O)(c2cc3c(c(-c4ccc(F)c(F)c4Cl)n2)OC[C@]3(C)C(N)=O)C(F)(F)F)cc2cc(Cl)c(C)nc12 [Example 774],< 200,< 500
COc1cc(C(=O)NC[C@](O)(c2cc3c(c(-c4ccc(F)c(F)c4Cl)n2)OC[C@]3(C)C(N)=O)C(F)(F)F)cc2cn(C3(F)CC3)nc12 [Example 775],< 200,< 500
COc1cc(C(=O)NC[C@](O)(c2cc3c(c(-c4ccc(F)c(F)c4Cl)n2)OC[C@]3(C)C(N)=O)C(F)(F)F)cc2cn(C(F)F)nc12 [Example 776],< 200,< 500
Cc1nc2c(OC3CC3)cc(C(=O)NC[C@](O)(c3cc4c(c(-c5ccc(F)c(F)c5Cl)n3)OC[C@]4(C)C(N)=O)C(F)(F)F)cc2cc1Cl [Example 777],< 200,< 500
COc1cc(C(=O)NC[C@](O)(c2cc3c(c(-c4ccc(F)c(F)c4Cl)n2)OC[C@]3(C)C(N)=O)C(F)(F)F)cc2cc(Br)cnc12 [Example 778],< 200,< 500
Cc1cnc2c(Cl)cc(C(=O)NC[C@](O)(c3cc4c(c(-c5ccc(F)c(F)c5Cl)n3)OC[C@]4(C)C(N)=O)C(F)(F)F)cc2c1 [Example 779],< 200,< 500
C[C@]1(C(N)=O)COc2c1cc([C@@](O)(CNC(=O)c1cc(Cl)c3nn(C4CC4)cc3c1)C(F)(F)F)nc2-c1ccc(F)c(F)c1Cl [Example 780],< 200,< 500
Cc1cnc2c(OC(F)F)cc(C(=O)NC[C@](O)(c3cc4c(c(-c5ccc(F)c(F)c5Cl)n3)OC[C@]4(C)C(N)=O)C(F)(F)F)cc2c1 [Example 781],< 200,< 500
COc1cc(C(=O)NC[C@](O)(c2cc3c(c(-c4cc(F)c(F)c(Cl)c4)n2)OC[C@]3(C)C(N)=O)C(F)(F)F)cc2cn(C3CC3)nc12 [Example 782],< 200,< 500
COc1cc(C(=O)NC[C@](O)(c2cc3c(c(-c4cc(F)c(F)c(Cl)c4)n2)OC[C@]3(C)C(N)=O)C(F)(F)F)cc2cn(C(F)F)nc12 [Example 783],< 200,< 500
